Laboratory results reported in article PMC5218480 (PLoS ONE, 2017).

Test system: MV-4-11 cells
Experiment: Gene expression microarray analysis (Affymetrix PrimeView) and GSEA
Assay type: cell-based, human
Settings: gene C12orf56, chromosome 12 open reading frame 56; Azacitidine 1 mM; LIST F

Nc1ncn([C@@H]2O[C@H](CO)[C@@H](O)[C@H]2O)c(=O)n1 [azacitidine]
RFU, C12orf56 (ProbeSet 11735607_a_at): 185.59 RFU
